Where two headings read alike, the source gives them in different places.
Experiments:
[1] = tested on: H3K36me3 in A549 cells; assay: In-Cell Western (ICW) assay of SETD2 inhibitors (A549 assay); assay type: cell-based, human; conditions: A549 cells, read-out: SETD2 A549
In short: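 H3K36me3 In-Cell Western: cells exposed to compound for 3 days at 4,000 cells/well, 37° C. DRAQ5 (1:1000) marked cell number, with 700/800-channel Licor read-out.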

[2] = molecular target: T1, SETD2(1434-1711) (Homo sapiens, UniProt Q9BYW2); assay: SETD2 (1434-1711) assay; assay type: biochemical; conditions: read-out: SETD2 (1434-1711)
T1 construct: SETD2 (1434-1711) Assay; catalogue N/A
T1 sequence (Q9BYW2 1434-1711): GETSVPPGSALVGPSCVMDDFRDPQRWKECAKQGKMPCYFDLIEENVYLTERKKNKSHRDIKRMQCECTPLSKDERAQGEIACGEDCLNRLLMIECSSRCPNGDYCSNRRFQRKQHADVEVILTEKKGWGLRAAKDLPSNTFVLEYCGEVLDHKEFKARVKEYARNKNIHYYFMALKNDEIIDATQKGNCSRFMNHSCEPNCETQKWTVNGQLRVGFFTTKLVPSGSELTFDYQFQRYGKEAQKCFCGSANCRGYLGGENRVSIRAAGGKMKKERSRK

With `CC(=O)N1CCC(N2CCCCC(NC(=O)c3cc4c(F)ccc(C)c4[nH]3)C2)CC1` (stereo not shown) [compound 867] as the molecule, how does the IC50 ([1]; Homo sapiens) read?
The IC50 was > 2 µM.

And the IC50 [2]?
Its IC50 is 0.4 µM.

With `CC(=O)N1CC2CCC(C1)N2[C@@H]1CCC[C@@H](NC(=O)c2cc3c(F)ccc(C)c3[nH]2)C1` [compound 953] as the molecule, how does the IC50 ([1]; Homo sapiens) read?
The IC50 was > 2 µM.

And the IC50 [2]?
The IC50 was 3 µM.

With `CC(=O)N1CCN(c2ccccc2CNC(=O)c2cc3cccc(C)c3[nH]2)CC1` [compound 499] as the molecule, how does the IC50 [1] read?
The IC50 was 13.9 µM.

What about the IC50 [2] of the same molecule?
Its IC50 is 9.1 µM.

What does the source list for `COCCC(=O)N1CCN(c2cccc(NC(=O)c3cc4c(F)ccc(C)c4[nH]3)c2)CC1` [compound 75]?
IC50 [1]: 0.2 µM; IC50 [2]: 0.06 µM

What does the source list for `Cc1ccc(F)c2cc(C(=O)Nc3cccc(-c4cc5cnccn5c4)c3)[nH]c12` [compound 215]?
IC50 [1]: 0.5 µM; IC50 [2]: 0.07 µM

Which results are given for `Cc1ccc(F)c2cc(C(=O)NC(c3nn4ccccc4c3C)C3CC3)[nH]c12` (stereo not shown) [compound 424]?
IC50 [1]: 3.8 µM; IC50 [2]: 0.7 µM

`Cc1cccc2cc(C(=O)N[C@H]3CC[C@H](C)CC3)[nH]c12` [compound 504] was tested. Which IC50 [1] did it give?
The IC50 was 14.9 µM.

And the IC50 [2]?
Its IC50 is 3.8 µM.

With `Cc1ccc(F)c2cc(C(=O)Nc3cccc(N4CCC(N5CCC(N)CC5)C4)c3)[nH]c12` (stereo not shown) [compound 347] as the molecule, how does the IC50 [1] read?
The IC50 was 1.9 µM.

What about the IC50 [2] of the same molecule?
Its IC50 is 0.003 µM.

Which IC50 [1] does the source give for `Cc1ccc(F)c2cc(C(=O)Nc3cccc(N4CCC(NCCO)CC4)c3)[nH]c12` [compound 210] here?
The IC50 was 0.4 µM.

And the IC50 [2]?
The IC50 was 0.03 µM.

With `Cc1ccnnc1C(NC(=O)c1cc2c(F)ccc(C)c2[nH]1)C1CC1` (stereo not shown) [compound 450] as the molecule, how does the IC50 ([1]; Homo sapiens) read?
The IC50 was 5.6 µM.

And the IC50 [2]?
The IC50 was 2.3 µM.

How did the IC50 [1] turn out when `Cc1cccc2cc(C(=O)Nc3ccc4cnccc4c3)[nH]c12` [compound 437] was run?
Its IC50 is 4.8 µM.

What about the IC50 [2] of the same molecule?
Its IC50 is 0.6 µM.

What does the source list for `Cc1cccc2cc(C(=O)Nc3ccc4ccccc4c3)[nH]c12` [compound 526]?
IC50 ([1]; Homo sapiens): 22.6 µM; IC50 [2]: 1.9 µM

With `CC(=O)N1CCN([C@H]2CCC[C@@H](NC(=O)c3cc4cccc(C)c4[nH]3)C2)CC1` [compound 856] as the molecule, how does the IC50 [1] read?
Its IC50 is 0.3 µM.

What about the IC50 [2] of the same molecule?
Its IC50 is 0.2 µM.

Which results are given for `Cc1cc(C(=O)NC2CNC2)cnc1C(NC(=O)c1cc2cccc(C)c2[nH]1)C1CC1` (stereo not shown) [compound 535]?
IC50 [1]: > 25 µM; IC50 [2]: 0.6 µM

`Cc1ccc(F)c2cc(C(=O)Nc3cccc(-c4cc(N)on4)c3)[nH]c12` [compound 502] was tested. Which IC50 [1] did it give?
The IC50 was 14.7 µM.

And the IC50 [2]?
Its IC50 is 0.5 µM.

What does the source list for `Cc1cc(C(=O)N[C@@H]2CC[C@@H]2N)cnc1C(NC(=O)c1cc2cccc(C)c2[nH]1)C1CC1` (stereo partly shown) [compound 584]?
IC50 ([1]; Homo sapiens): > 25 µM; IC50 [2]: 33.7 µM

What does the source list for `CC(=O)N1CCCC12CCN(c1cc(F)cc(NC(=O)c3cc4c(F)ccc(C)c4[nH]3)c1)CC2` [compound 104]?
IC50 [1]: 0.2 µM; IC50 [2]: 0.03 µM

Which results are given for `Cc1ccc(F)c2cc(C(=O)NC3CCCN(CCC(=O)N(C)C)C3)[nH]c12` (stereo not shown) [compound 378]?
IC50 [1]: > 2 µM; IC50 [2]: > 10 µM

How did the IC50 [1] turn out when `COCCN1CCC2(CC1)CN(c1cccc(NC(=O)c3cc4c(F)ccc(C)c4[nH]3)c1)C2` [compound 109] was run?
The IC50 was 0.2 µM.

And the IC50 [2]?
The IC50 was 0.01 µM.

What does the source list for `CNc1cccc(-c2cccc(NC(=O)c3cc4c(F)ccc(C)c4[nH]3)c2)n1` [compound 326]?
IC50 ([1]; Homo sapiens): 1.6 µM; IC50 [2]: 0.2 µM

How did the IC50 [1] turn out when `Cc1ccc(F)c2cc(C(=O)Nc3cc(F)cc(N4CCN(C(=O)C(C)N(C)C)CC4)c3)[nH]c12` (stereo not shown) [compound 43] was run?
Its IC50 is 0.1 µM.

What about the IC50 [2] of the same molecule?
The IC50 was 0.007 µM.

With `Cc1ccc(F)c2cc(C(=O)Nc3ccn(C4CCN(C)CC4)n3)[nH]c12` [compound 548] as the molecule, how does the IC50 [1] read?
The IC50 was > 25 µM.

And the IC50 [2]?
The IC50 was 5.1 µM.

`CCN(C1CCN(C2CCCC(NC(=O)c3cc4c(F)ccc(C)c4[nH]3)C2)C1)S(C)(=O)=O` (stereo not shown) [compound 1122] was tested. Which IC50 [1] did it give?
Its IC50 is > 2 µM.

And the IC50 [2]?
The IC50 was 1.9 µM.

For `Cc1ccc(F)c2cc(C(=O)Nc3cccc(N4CCC(C)(O)CC4)c3)[nH]c12` [compound 87], which IC50 ([1]; Homo sapiens) is on record?
Its IC50 is 0.2 µM.

What about the IC50 [2] of the same molecule?
Its IC50 is 0.1 µM.

How did the IC50 ([1]; Homo sapiens) turn out when `Cc1ccc(F)c2cc(C(=O)N[C@@H]3CCCC(N4CCC5(CCC(=O)N5)CC4)C3)[nH]c12` (stereo partly shown) [compound 894] was run?
Its IC50 is 1.4 µM.

And the IC50 [2]?
Its IC50 is 0.03 µM.

Which IC50 [1] does the source give for `Cc1cccc2cc(C(=O)NC3CCOCC3)[nH]c12` [compound 505] here?
The IC50 was 14.9 µM.

And the IC50 [2]?
Its IC50 is 11.2 µM.

What does the source list for `Cc1ccc(F)c2cc(C(=O)N[C@@H]3CCCC(N4CCC5(CCNC5=O)CC4)C3)[nH]c12` (stereo partly shown) [compound 874]?
IC50 ([1]; Homo sapiens): > 2 µM; IC50 [2]: 0.4 µM

`CCN(C1CCN(C2CCCC(NC(=O)c3cc4c(F)ccc(C)c4[nH]3)C2)C1)S(C)(=O)=O` (stereo not shown) [compound 1132] was tested. Which IC50 [1] did it give?
The IC50 was > 2 µM.

What about the IC50 [2] of the same molecule?
Its IC50 is 2.3 µM.

Which results are given for `Cc1ccc(F)c2cc(C(=O)NC3CCCC(N4CCn5c(nnc5C(F)(F)F)C4)C3)[nH]c12` (stereo not shown) [compound 989]?
IC50 [1]: 0.8 µM; IC50 [2]: 0.1 µM

How did the IC50 ([1]; Homo sapiens) turn out when `Cc1ccc(F)c2cc(C(=O)Nc3cccc(N4CCOCC4C4CC4)c3)[nH]c12` (stereo not shown) [compound 306] was run?
The IC50 was 1.2 µM.

What about the IC50 [2] of the same molecule?
The IC50 was 0.4 µM.

Which results are given for `Cc1ccc(F)c2cc(C(=O)Nc3cccc(N4CCCN(C)CC4)c3)[nH]c12` [compound 279]?
IC50 ([1]; Homo sapiens): 0.9 µM; IC50 [2]: 0.04 µM

What does the source list for `Cc1ccc(F)c2cc(C(=O)NC3CCCC(N4CCN5C(=O)CCCC5C4)C3)[nH]c12` (stereo not shown) [compound 1080]?
IC50 [1]: 1.7 µM; IC50 [2]: 0.5 µM

With `Cc1c(NC(=O)c2cc3c(F)ccc(C)c3[nH]2)cccc1N1CCN(C)CC1` [compound 320] as the molecule, how does the IC50 ([1]; Homo sapiens) read?
Its IC50 is 1.4 µM.

What about the IC50 [2] of the same molecule?
Its IC50 is 0.2 µM.

What does the source list for `Cc1ccc(F)c2cc(C(=O)NC3CCCC(N4CCn5ccnc5C4)C3)[nH]c12` (stereo not shown) [compound 852]?
IC50 [1]: 1 µM; IC50 [2]: 0.1 µM

Which IC50 ([1]; Homo sapiens) does the source give for `Cc1ccc(F)c2cc(C(=O)Nc3cccc(-c4cnco4)c3)[nH]c12` [compound 108] here?
Its IC50 is 0.2 µM.

And the IC50 [2]?
Its IC50 is 0.06 µM.

For `Cc1ccc(F)c2cc(C(=O)Nc3cccc(N4CC5CCCN(C)C5C4)c3)[nH]c12` (stereo not shown) [compound 182], which IC50 [1] is on record?
Its IC50 is 0.4 µM.

And the IC50 [2]?
Its IC50 is 0.02 µM.

What does the source list for `COCCN1CCN(c2cccc(NC(=O)c3cc4c(F)ccc(C)c4[nH]3)c2)CC1` [compound 223]?
IC50 [1]: 0.5 µM; IC50 [2]: 0.09 µM

For `Cc1ccc(F)c2cc(C(=O)NC3CCCC(N4CCCN(S(C)(=O)=O)CC4)C3)[nH]c12` (stereo not shown) [compound 981], which IC50 [1] is on record?
Its IC50 is 0.6 µM.

What about the IC50 [2] of the same molecule?
Its IC50 is 0.03 µM.

How did the IC50 ([1]; Homo sapiens) turn out when `Cc1cccnc1C(Cc1ccccc1)NC(=O)c1cc2cccc(C)c2[nH]1` (stereo not shown) [compound 408] was run?
The IC50 was 2.9 µM.

What about the IC50 [2] of the same molecule?
Its IC50 is 0.4 µM.

What does the source list for `Cc1ccc(F)c2cc(C(=O)Nc3cccc(C4CNC(=O)C4)c3)[nH]c12` (stereo not shown) [compound 177]?
IC50 ([1]; Homo sapiens): 0.4 µM; IC50 [2]: 0.1 µM

What does the source list for `CC(=O)N1C(C)CN(C2CCCC(NC(=O)c3cc4c(F)ccc(C)c4[nH]3)C2)CC1C` (stereo not shown) [compound 1163]?
IC50 [1]: > 2 µM; IC50 [2]: 1.6 µM

Which results are given for `Cc1cccc2cc(C(=O)NC(C)c3ccccc3Cl)[nH]c12` (stereo not shown) [compound 1154]?
IC50 [1]: > 25 µM; IC50 [2]: 6 µM

With `Cc1cccnc1C(NC(=O)C1Cc2cccc(C)c2N1)C1CC1` (stereo not shown) [compound 607] as the molecule, how does the IC50 ([1]; Homo sapiens) read?
The IC50 was > 25 µM.

What about the IC50 [2] of the same molecule?
Its IC50 is > 50 µM.

What does the source list for `Cc1ccc(F)c2cc(C(=O)Nc3cc(F)cc4cnccc34)[nH]c12` [Cpd. No. 82, 4-fluoro-N-(7-fluoroisoquinolin-5-yl)-7-methyl-1H-indole-2-carboxamide]?
IC50 ([1]; Homo sapiens): 0.2 µM; IC50 [2]: 0.04 µM

Which results are given for `Cc1ccc(F)c2cc(C(=O)Nc3cc(N4CCN(C)CC4)c4cnccc4c3)[nH]c12` [compound 401]?
IC50 [1]: 2.4 µM; IC50 [2]: 0.03 µM

How did the IC50 ([1]; Homo sapiens) turn out when `Cc1cc(Cn2ccnc2)cnc1C(NC(=O)c1cc2c(F)ccc(C)c2[nH]1)C1CC1` (stereo not shown) [Cpd. No. 161, N-((5-((1H-imidazol-1-yl)methyl)-3-methylpyridin-2-yl)(cyclopropyl)methyl)-4-fluoro-7-methyl-1H-indole-2-carboxamide] was run?
The IC50 was 0.3 µM.

What about the IC50 [2] of the same molecule?
Its IC50 is 0.03 µM.

`Cc1nnc(C2CCCC(NC(=O)c3cc4c(F)ccc(C)c4[nH]3)C2)o1` (stereo not shown) [compound 975] was tested. Which IC50 [1] did it give?
Its IC50 is 0.4 µM.

What about the IC50 [2] of the same molecule?
The IC50 was 0.1 µM.
